Patent US5010093A, “Nitric ester derivative” (Fujisawa Pharmaceutical Co., Ltd., priority 1987, dated 1991)
Converted amounts (≈) assume the structure as drawn.

Legend:
[1] = tested on: Normotensive Rats; test: Effect on Normotensive Rats (duration of hypotensive effect after oral dosing); type: in vivo; conditions: 10 mg/kg, normotensive male S.D. rats fasted about 18 hours
Procedure: 7 to 9-week-old male S.D. rats with mean arterial blood pressure of 100-125 mmHg, weighing 245-375 g, were used. The animals were cannulated in the left femoral artery and the mean blood pressure and heart rate were measured with a pressure-transducer. The drugs were given orally. The animals were deprived of food for about 18 hours before oral dosing. The test drugs were dissolved in saline or ethanol, and given in oral doses of 10 mg/kg. The duration of half the maximum hypotensive effect was calculated as T 1/2. Compound 1 ,and Compound A.

[2] = tested on: Isolated Rat Aorta; test: Effect on Isolated Rat Aorta (relaxation of norepinephrine-contracted aortic strips); conditions: aortic spiral strips, norepinephrine 3.2 ×10^-8 M tonus, 37° C., effect of papaverine 10^-4 M=100%, read-out: ED50 value
Procedure: The aortas were removed from rats. Spiral strips approximately 10 mm in length were cut from the aorta, and suspended in an organ bath containing Tyrode's solution at 37° C., aerated with a gas mixture of 95% oxygen and 5% carbon dioxide. The tonus of the strips was recorded on a polygraph with a force-displacement transducer. After the initial resting tension was adjusted to 0.5 g, norepinephrine 3.2 ×10^-8 M was added to the organ bath to increase the tonus of the aortic strips to 0.9-1.1 g.
The cumulative concentrations of the test compound were then added, and finally papaverine 10^-4 M was given to determine maximum relaxation. ED50 values were calculated by interpolation from the mean cumulative dose-activity curves (effect of papaverine 10^-4 M=100%).
N-(2-Nitrooxyethyl)-2-methyl-4-thiazolecarboxamide hydrochloride (hereinafter referred to as Compound .circle.1 ), and N-(2-Nitrooxyethyl)-3-pyridinecarboxamide (Reference Compound A) (hereinafter referred to as Compound A).

EC50 [2] [µg/mL]	Compound	T 1/2 (duration of half the maximum hypotensive effect) [1] [h]
0.94 (≈ 4.45 µM)	O=C(NCCO[N+](=O)[O-])c1cccnc1 [Compound A, N-(2-Nitrooxyethyl)-3-pyridinecarboxamide]	0.833
0.091 (≈ 0.394 µM)	Cc1nc(C(=O)NCCO[N+](=O)[O-])cs1 [.circle.1]	1.67
